# Laboratory results reported in ChEMBL document CHEMBL1129876, “The synthesis and activity of spiroindane growth hormone secretagogues” (Bioorg Med Chem Lett, 1997).
# Assays:
# Rattus norvegicus = organism: Rattus norvegicus; assay: The compound was evaluated for its ability to release growth hormone from rat pituitary cells.; format: functional, cell-based; settings: Pituitary gland cell
# Canis familiaris [1] = assay: Tested for response in dogs after oral administration of 2 mg/kg; cured/treated is 0/1; format: functional, organism-based; parameters: dose 2 mg/kg; settings: Canis lupus familiaris
# Canis familiaris [2] = assay: Tested for response in dogs after iv administration of 0.1 mg/kg; cured/treated is 1/1; format: functional, organism-based; parameters: dose 0.1 mg/kg; settings: Canis lupus familiaris
# Canis familiaris [3] = assay: Tested for response in dogs after oral administration of 1 mg/kg; cured/treated is 1/1; format: functional, organism-based; parameters: dose 1 mg/kg; settings: Canis lupus familiaris
# Canis familiaris [4] = assay: Tested for response in dogs after iv administration of 0.05 mg/kg; cured/treated is 0/1; format: functional, organism-based; parameters: dose 0.05 mg/kg; settings: Canis lupus familiaris
# Canis familiaris [5] = assay: Tested for response in dogs after oral administration of 1 mg/kg; cured/treated is 2/2; format: functional, organism-based; parameters: dose 1 mg/kg; settings: Canis lupus familiaris
# Canis familiaris [6] = assay: Tested for response in dogs after oral administration of 0.5 mg/kg; cured/treated is 1/2; format: functional, organism-based; parameters: dose 0.5 mg/kg; settings: Canis lupus familiaris
# Canis familiaris [7] = assay: Tested for response in dogs after iv administration of 0.05 mg/kg; cured/treated is 1/2; format: functional, organism-based; parameters: dose 0.05 mg/kg; settings: Canis lupus familiaris
# Canis familiaris [8] = assay: Tested for response in dogs after peroral administration of 0.5 mg/kg; cured/treated is 1/2; format: functional, organism-based; parameters: dose 0.5 mg/kg; settings: Canis lupus familiaris
# Canis familiaris [9] = assay: Tested for response in dogs after peroral administration of 1 mg/kg; cured/treated is 2/2; format: functional, organism-based; parameters: dose 1 mg/kg; settings: Canis lupus familiaris
# Canis familiaris [10] = assay: Tested for response in dogs after iv administration of 0.1 mg/kg; cured/treated is 0/1; format: functional, organism-based; parameters: dose 0.1 mg/kg; settings: Canis lupus familiaris
# Canis familiaris [11] = assay: Tested for response in dogs after iv administration of 0.05 mg/kg; cured/treated is 1/1; format: functional, organism-based; parameters: dose 0.05 mg/kg; settings: Canis lupus familiaris
# Canis familiaris [12] = assay: Tested for response in dogs after peroral administration of 0.125 mg/kg; cured/treated is 1/2; format: functional, organism-based; parameters: dose 0.125 mg/kg; settings: Canis lupus familiaris
# Canis familiaris [13] = assay: Tested for response in dogs after peroral administration of 0.25 mg/kg; cured/treated is 2/2; format: functional, organism-based; parameters: dose 0.25 mg/kg; settings: Canis lupus familiaris
# Canis familiaris [14] = assay: Tested for response in dogs after iv administration of 0.025 mg/kg; cured/treated is 1/1; format: functional, organism-based; parameters: dose 0.025 mg/kg; settings: Canis lupus familiaris
compound,measurement,setting,value
CC(C)(N)C(=O)N[C@H](Cc1c[nH]c2ccccc12)C(=O)N1CCC2(CC1)c1ccccc1CC2O (stereo partly specified),EC50,Rattus norvegicus,65 nM
CC(C)(N)C(=O)N[C@H](CCCc1ccccc1)C(=O)N1CCC2(CC1)CC(O)c1ccccc12 (stereo partly specified),EC50,Rattus norvegicus,0.72 nM
CC(C)(N)C(=O)N[C@H](Cc1c[nH]c2ccccc12)C(=O)N1CCC2(CCc3ccccc32)CC1,Response,Canis familiaris [1],cured/treated is 0/1
same,Response,Canis familiaris [2],cured/treated is 0/1
same,Response,Canis familiaris [3],cured/treated is 0/1
same,Response,Canis familiaris [4],cured/treated is 0/1
CC(C)(N)C(=O)N[C@H](Cc1c[nH]c2ccccc12)C(=O)N1CCC2(CC1)CC(=O)c1ccccc12,Response,Canis familiaris [5],cured/treated is 1/2
same,Response,Canis familiaris [6],cured/treated is 1/2
same,Response,Canis familiaris [7],cured/treated is 1/2
same,EC50,Rattus norvegicus,1.2 nM
CC(C)(N)C(=O)N[C@H](CCCc1ccccc1)C(=O)N1CCC2(CCc3ccccc32)CC1,Response,Canis familiaris [8],cured/treated is 0/1
same,Response,Canis familiaris [9],cured/treated is 0/1
same,Response,Canis familiaris [10],cured/treated is 0/1
same,EC50,Rattus norvegicus,10 nM
CC(C)(N)C(=O)N[C@H](COCc1ccccc1)C(=O)N1CCC2(CCc3ccccc32)CC1,EC50,Rattus norvegicus,17 nM
CC(C)(N)C(=O)N[C@H](Cc1c[nH]c2ccccc12)C(=O)N1CCC2(CC1)CC(O)c1ccccc12 (stereo partly specified),Response,Canis familiaris [8],cured/treated is 1/1
same,Response,Canis familiaris [9],cured/treated is 1/1
same,Response,Canis familiaris [11],cured/treated is 1/1
same,EC50,Rattus norvegicus,0.6 nM
CC(C)(N)C(=O)N[C@H](COCc1ccccc1)C(=O)N1CCC2(CC1)CC(=O)c1ccccc12,EC50,Rattus norvegicus,4.8 nM
CC(C)(N)C(=O)N[C@H](Cc1c[nH]c2ccccc12)C(=O)N1CCC2(CC1)c1ccccc1C(O)C2O (stereo partly specified),EC50,Rattus norvegicus,30 nM
CC(C)(N)C(=O)N[C@H](CCCc1ccccc1)C(=O)N1CCC2(CC1)CC(=O)c1ccccc12,Response,Canis familiaris [12],cured/treated is 1/1
same,Response,Canis familiaris [13],cured/treated is 1/1
same,EC50,Rattus norvegicus,0.8 nM
same,Response,Canis familiaris [14],cured/treated is 1/1
CC(C)(N)C(=O)N[C@H](COCc1ccccc1)C(=O)N1CCC2(CC1)CC(O)c1ccccc12 (stereo partly specified),EC50,Rattus norvegicus,4 nM
